The target of series [1] is ELAV-like protein 1 (Homo sapiens) (UniProt Q15717). Put plainly: Inhibition of HuR (unknown origin) assessed as reduction in protein-mRNA interaction at 0.5 to 100 uM preincubated for 1 hr followed by mRNA addition and measured after 1.5 hrs by fluorescence polarization assay. The note with it: dose 0.5-100 µM, time 2.5 hrs. For orientation: Fluorescence polarisation rises when a labelled molecule tumbles more slowly, as on binding a larger partner.

Series [2] in a line: Retention time of the compound in acetate buffer by HPLC-UV analysis. It is filed as physicochemical.

Active and inactive are the calls of the source. The rule behind the calls is not given here.

Chain of ELAV-like protein 1 (Homo sapiens) (Q15717 whole entry): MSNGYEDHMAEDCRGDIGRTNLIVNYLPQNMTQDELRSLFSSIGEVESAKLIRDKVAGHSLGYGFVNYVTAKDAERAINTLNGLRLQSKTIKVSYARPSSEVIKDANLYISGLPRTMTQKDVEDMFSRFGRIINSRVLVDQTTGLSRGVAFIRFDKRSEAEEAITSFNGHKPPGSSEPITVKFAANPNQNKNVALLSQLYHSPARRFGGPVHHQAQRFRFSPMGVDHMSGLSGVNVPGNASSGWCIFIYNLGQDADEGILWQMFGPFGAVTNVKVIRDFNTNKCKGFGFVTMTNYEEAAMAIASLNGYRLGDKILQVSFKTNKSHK

Consider `O=C(COc1ccc(Cl)cc1Cl)N/N=C/c1csc(Br)n1`, for which the inhibition entry in series [1] is “Active”. The Retention_time in series [2] was 12.86 min. On to `Cc1cccc(Cn2nc(C(C)(C)C)cc2C(=O)N/N=C/c2csc(Br)n2)c1`, for which, in series [1], the inhibition result is “Active”. With `Cc1cccc(Cn2nc(C(C)(C)C)cc2C(=O)N/N=C/c2ccc3cn[nH]c3c2)c1`, in series [1], the inhibition result was “Active”.

The record behind these values is ChEMBL document CHEMBL5370675, “Identification of HuR-RNA Interfering Compounds by Dynamic Combinatorial Chemistry and Fluorescence Polarization” (ACS Med Chem Lett, 2023).
